Patent US20050250801A1, “Method of treating cancer with azaspirane compositions” (priority 2003, published 2005)
Like-named read-outs stand apart in the source and are kept apart here.

Assays:
Assay type in all cases: cell-based
[1] = test system: A549/ATCC; assay: NCI in vitro SRB assay, Non-Small Cell Lung Cancer; conditions: for CC50 / GI50: Homo sapiens
Description: (§1) An in vitro assay which tested the ability of N,N,-diethyl-8,8-dipropyl-2-azaspiro[4,5]decane-2-propanamine dimaleate (Compound 1) to inhibit the growth of known cancer cell lines was performed by the National Cancer Institute in accordance with standard procedures. See: Lin, Z. X., Hoult, J. R., and Raman, A. Sulphorhodamine B assay for measuring proliferation of a pigmented melanocyte cell line and its application to the evaluation of crude drugs used in the treatment of vitiligo. J Ethnopharmacol. 66: 141-150, 1999. Briefly, selected tumor cell lines were cultured in media containing five different concentrations of Compound 1. After 48 hours of continuous exposure, a sulforhodamine B (SRB) assay was used to estimate cell viability or growth via optical measurements.
(§2) From the measurements, the following values were determined: 1) the concentration of Compound 1 at which a tumor cell growth inhibition of 50% (relative to control) occurs (GI50), 2) the concentration of Compound 1 at which no growth occurs (total growth inhibition, TGI), and 3) the concentration of Compound 1 at which the […] (LC 50). […] FIG. 6 illustrates, graphically, tumor cell growth as a function of Compound 1 concentration of the scanned tumor cell lines.

[2] = test system: HCC-2998; assay: NCI in vitro SRB assay, Colon Cancer; conditions: for CC50 / GI50: Homo sapiens
Description: as §1, §2

[3] = test system: HCT-116; assay: NCI in vitro SRB assay, Colon Cancer; conditions: for CC50 / GI50: Homo sapiens
Description: as §1, §2

[4] = test system: HCT-15; assay: NCI in vitro SRB assay, Colon Cancer; conditions: for CC50 / GI50: Homo sapiens
Description: as §1, §2

[5] = test system: KM12; assay: NCI in vitro SRB assay, Colon Cancer; conditions: for CC50 / GI50: Homo sapiens
Description: as §1, §2

[6] = test system: SW-620; assay: NCI in vitro SRB assay, Colon Cancer; conditions: for CC50 / GI50: Homo sapiens
Description: as §1, §2

[7] = test system: SK-OV-3; assay: NCI in vitro SRB assay, Ovarian Cancer
Description: as §1, §2

[8] = test system: DU-145; assay: NCI in vitro SRB assay, Prostate Cancer; conditions: for GI50: Homo sapiens
Description: as §1, §2

[9] = test system: PC-3; assay: NCI in vitro SRB assay, Prostate Cancer; conditions: for CC50 / GI50: Homo sapiens
Description: as §1, §2

[10] = A549/ATCC, Log10 conc -4.0 Moles/L
[11] = A549/ATCC, Log10 conc -5.0 Moles/L
[12] = A549/ATCC, Log10 conc -6.0 Moles/L
[13] = A549/ATCC, Log10 conc -7.0 Moles/L
[14] = A549/ATCC, Log10 conc -8.0 Moles/L
[15] = HCC-2998, Log10 conc -4.0 Moles/L
[16] = HCC-2998, Log10 conc -5.0 Moles/L
[17] = HCC-2998, Log10 conc -6.0 Moles/L
[18] = HCC-2998, Log10 conc -7.0 Moles/L
[19] = HCC-2998, Log10 conc -8.0 Moles/L
[20] = HCT-116, Log10 conc -4.0 Moles/L
[21] = HCT-116, Log10 conc -5.0 Moles/L
[22] = HCT-116, Log10 conc -6.0 Moles/L
[23] = HCT-116, Log10 conc -7.0 Moles/L
[24] = HCT-116, Log10 conc -8.0 Moles/L
[25] = HCT-15, Log10 conc -4.0 Moles/L
[26] = HCT-15, Log10 conc -5.0 Moles/L
[27] = HCT-15, Log10 conc -6.0 Moles/L
[28] = HCT-15, Log10 conc -7.0 Moles/L
[29] = HCT-15, Log10 conc -8.0 Moles/L
[30] = SW-620, Log10 conc -4.0 Moles/L
[31] = SW-620, Log10 conc -5.0 Moles/L
[32] = SW-620, Log10 conc -6.0 Moles/L
[33] = SW-620, Log10 conc -7.0 Moles/L
[34] = SW-620, Log10 conc -8.0 Moles/L

Q: Which results are given for CCCC1(CCC)CCC2(CCN(CCCN(CC)CC)C2)CC1.O=C(O)/C=C\C(=O)O.O=C(O)/C=C\C(=O)O [Compound 1, N,N,-diethyl-8,8-dipropyl-2-azaspiro[4,5]decane-2-propanamine dimaleate]?
A: Log10 TGI ([1]; A549/ATCC): −5.48; TGI ([1]; A549/ATCC): 3330 nM; Mean Optical Densities [1, 10]: 0.056; Percent Growth [1, 10]: −78%; Mean Optical Densities [1, 11]: 0.070; Percent Growth [1, 11]: −73%; Mean Optical Densities [1, 12]: 1.126; Percent Growth [1, 12]: 80%; Mean Optical Densities [1, 13]: 1.307; Percent Growth [1, 13]: 96%; Mean Optical Densities [1, 14]: 1.277; Percent Growth [1, 14]: 94%; CC50 ([1]; A549, read-out: LC50): 7080 nM; CC50 ([1]; A549, read-out: Log10 LC50 (converted)): 7080 nM; GI50 ([1]; A549/ATCC, read-out: GI50): 1570 nM; GI50 ([1]; A549/ATCC, read-out: Log10 GI50 (converted)): 1580 nM; Log10 TGI ([2]; HCC-2998): −6.62; TGI ([2]; HCC-2998): 239 nM; Mean Optical Densities [2, 15]: 0.036; Percent Growth [2, 15]: −84%; Mean Optical Densities [2, 16]: 0.019; Percent Growth [2, 16]: −92%; Mean Optical Densities [2, 17]: 0.057; Percent Growth [2, 17]: −74%; Mean Optical Densities [2, 18]: 0.303; Percent Growth [2, 18]: 45%; Mean Optical Densities [2, 19]: 0.338; Percent Growth [2, 19]: 64%; CC50 ([2]; HCC 2998, read-out: LC50): 628 nM; CC50 ([2]; HCC 2998, read-out: Log10 LC50 (converted)): 631 nM; GI50 ([2]; HCC-2998, read-out: GI50): 54.9 nM; GI50 ([2]; HCC-2998, read-out: Log10 GI50 (converted)): 55 nM; Log10 TGI ([3]; HCT-116): −5.63; TGI ([3]; HCT-116): 2370 nM; Mean Optical Densities [3, 20]: 0.061; Percent Growth [3, 20]: −63%; Mean Optical Densities [3, 21]: 0.051; Percent Growth [3, 21]: −69%; Mean Optical Densities [3, 22]: 0.407; Percent Growth [3, 22]: 41%; Mean Optical Densities [3, 23]: 0.675; Percent Growth [3, 23]: 87%; Mean Optical Densities [3, 24]: 0.744; Percent Growth [3, 24]: 99%; CC50 ([3]; HCT-116, read-out: LC50): 6730 nM; CC50 ([3]; HCT-116, read-out: Log10 LC50 (converted)): 6760 nM; GI50 ([3]; HCT-116, read-out: GI50): 646 nM; GI50 ([3]; HCT-116, read-out: Log10 GI50 (converted)): 646 nM; Log10 TGI ([4]; HCT-15): −5.87; TGI ([4]; HCT-15): 1340 nM; Mean Optical Densities [4, 25]: −0.026; Percent Growth [4, 25]: −100%; Mean Optical Densities [4, 26]: −0.027; Percent Growth [4, 26]: −100%; Mean Optical Densities [4, 27]: 0.371; Percent Growth [4, 27]: 14%; Mean Optical Densities [4, 28]: 0.819; Percent Growth [4, 28]: 75%; Mean Optical Densities [4, 29]: 0.878; Percent Growth [4, 29]: 83%; CC50 ([4]; HCT-15, read-out: LC50): 3650 nM; CC50 ([4]; HCT-15, read-out: Log10 LC50 (converted)): 3630 nM; GI50 ([4]; HCT-15, read-out: GI50): 261 nM; GI50 ([4]; HCT-15, read-out: Log10 GI50 (converted)): 263 nM; CC50 ([5]; KM12, read-out: LC50): 7130 nM; CC50 ([5]; KM12, read-out: Log10 LC50 (converted)): 7080 nM; GI50 ([5]; KM12, read-out: GI50): 1510 nM; GI50 ([5]; KM12, read-out: Log10 GI50 (converted)): 1510 nM; Log10 TGI ([5]; KM12): −5.48; TGI ([5]; KM12): 3290 nM; Mean Optical Densities ([5]; KM12, Log10 conc -4.0 Moles/L): 0.210; Percent Growth ([5]; KM12, Log10 conc -4.0 Moles/L): −52%; Mean Optical Densities ([5]; KM12, Log10 conc -5.0 Moles/L): 0.123; Percent Growth ([5]; KM12, Log10 conc -5.0 Moles/L): −72%; Mean Optical Densities ([5]; KM12, Log10 conc -6.0 Moles/L): 1.243; Percent Growth ([5]; KM12, Log10 conc -6.0 Moles/L): 77%; Mean Optical Densities ([5]; KM12, Log10 conc -7.0 Moles/L): 1.402; Percent Growth ([5]; KM12, Log10 conc -7.0 Moles/L): 92%; Mean Optical Densities ([5]; KM12, Log10 conc -8.0 Moles/L): 1.429; Percent Growth ([5]; KM12, Log10 conc -8.0 Moles/L): 94%; CC50 ([6]; SW-620, read-out: LC50): 5170 nM; CC50 ([6]; SW-620, read-out: Log10 LC50 (converted)): 5130 nM; GI50 ([6]; SW-620, read-out: GI50): 1380 nM; GI50 ([6]; SW-620, read-out: Log10 GI50 (converted)): 1380 nM; Log10 TGI ([6]; SW-620): −5.57; TGI ([6]; SW-620): 2670 nM; Mean Optical Densities [6, 30]: −0.016; Percent Growth [6, 30]: −100%; Mean Optical Densities [6, 31]: −0.002; Percent Growth [6, 31]: −100%; Mean Optical Densities [6, 32]: 0.789; Percent Growth [6, 32]: 75%; Mean Optical Densities [6, 33]: 0.948; Percent Growth [6, 33]: 95%; Mean Optical Densities [6, 34]: 0.948; Percent Growth [6, 34]: 95%; CC50 ([7]; Homo sapiens, SK-OV-3, read-out: Log10 LC50 (converted)): 58900 nM; GI50 ([7]; Homo sapiens, SK-OV-3, read-out: Log10 GI50 (converted)): 4570 nM; Log10 TGI ([7]; SK-OV-3): −5.10; Log10 TGI [8]: −5.51; TGI [8]: 3090 nM; GI50 ([8]; read-out: GI50): 1700 nM; GI50 ([8]; read-out: Log10 GI50 (converted)): 1700 nM; Mean Optical Densities ([8]; Log10 conc -4.0 Moles/L): −0.032; Percent Growth ([8]; Log10 conc -4.0 Moles/L): −100%; Mean Optical Densities ([8]; Log10 conc -5.0 Moles/L): 0.005; Percent Growth ([8]; Log10 conc -5.0 Moles/L): −98%; Mean Optical Densities ([8]; Log10 conc -6.0 Moles/L): 0.733; Percent Growth ([8]; Log10 conc -6.0 Moles/L): 94%; Mean Optical Densities ([8]; Log10 conc -7.0 Moles/L): 0.766; Percent Growth ([8]; Log10 conc -7.0 Moles/L): 101%; Mean Optical Densities ([8]; Log10 conc -8.0 Moles/L): 0.728; Percent Growth ([8]; Log10 conc -8.0 Moles/L): 93%; CC50 ([9]; PC-3, read-out: LC50): 6680 nM; CC50 ([9]; PC-3, read-out: Log10 LC50 (converted)): 6610 nM; GI50 ([9]; PC-3, read-out: GI50): 1710 nM; GI50 ([9]; PC-3, read-out: Log10 GI50 (converted)): 1700 nM; Log10 TGI ([9]; PC-3): −5.47; TGI ([9]; PC-3): 3380 nM; Mean Optical Densities ([9]; PC-3, Log10 conc -4.0 Moles/L): 0.037; Percent Growth ([9]; PC-3, Log10 conc -4.0 Moles/L): −90%; Mean Optical Densities ([9]; PC-3, Log10 conc -5.0 Moles/L): 0.073; Percent Growth ([9]; PC-3, Log10 conc -5.0 Moles/L): −80%; Mean Optical Densities ([9]; PC-3, Log10 conc -6.0 Moles/L): 1.953; Percent Growth ([9]; PC-3, Log10 conc -6.0 Moles/L): 89%; Mean Optical Densities ([9]; PC-3, Log10 conc -7.0 Moles/L): 2.067; Percent Growth ([9]; PC-3, Log10 conc -7.0 Moles/L): 96%; Mean Optical Densities ([9]; PC-3, Log10 conc -8.0 Moles/L): 2.116; Percent Growth ([9]; PC-3, Log10 conc -8.0 Moles/L): 99%
